# From US7285560B2, “Indole derivatives or benzimidazole derivatives for modulating IκB kinase” (Sanofi-Aventis Deutschland GmbH, priority 2002, dated 2007)
# Tests used:
# protein tyrosine kinase = assay: Protein tyrosine kinase assay (Upstate test kit); format: biochemical; conditions: for Specificity ratio: IC50 protein tyrosine kinase relative to IκB kinase, > denotes better than; for IC50: ATP concentration of 50 μM, substrate Poly (Glu, Tyr 4:1) 1 mg/ml
# Protocol: As examples of the specificities of the IκB kinase inhibitors which had been discovered, their IC50 values were determined in the case of the kinase enzyme protein tyrosine kinase.
# Protein tyrosine kinase activity was determined using the appropriate test kit from Upstate Biotechnologie in accordance with the manufacturer's instructions and at an ATP concentration of 50 μM. As a difference from the manufacturer's method, Multi-Screen plates (Millipore; phosphocellulose MS-PH, cat. MAPHNOB10, or Durapore PVDF, cat. MADVNOB 50), were used, together with the appropriate exhaust system, instead of phospho-cellulose filters. Poly (Glu, Tyr 4:1) (Sigma cat. P0275) was used as the test kit substrate at a test concentration of 1 mg/ml. The plates were then measured in a Wallac MicroBeta scintillation counter. 100 μM of the test substance were used in each case.
# The test substance was tested in a duplicate determination. The IC50 calculations were performed using the GraFit 3.0 software package.
# IκB kinase = molecular target: T1, IκB kinase (Homo sapiens, UniProt O14920+O15111); assay: IκB kinase ELISA; format: biochemical
# T1 construct: endogenous in cells; host or cells: HeLa S3 (S100 extract; ammonium sulfate cut, Superose-6 fractions at 670 kDa)
# T1 sequence (O14920 whole entry): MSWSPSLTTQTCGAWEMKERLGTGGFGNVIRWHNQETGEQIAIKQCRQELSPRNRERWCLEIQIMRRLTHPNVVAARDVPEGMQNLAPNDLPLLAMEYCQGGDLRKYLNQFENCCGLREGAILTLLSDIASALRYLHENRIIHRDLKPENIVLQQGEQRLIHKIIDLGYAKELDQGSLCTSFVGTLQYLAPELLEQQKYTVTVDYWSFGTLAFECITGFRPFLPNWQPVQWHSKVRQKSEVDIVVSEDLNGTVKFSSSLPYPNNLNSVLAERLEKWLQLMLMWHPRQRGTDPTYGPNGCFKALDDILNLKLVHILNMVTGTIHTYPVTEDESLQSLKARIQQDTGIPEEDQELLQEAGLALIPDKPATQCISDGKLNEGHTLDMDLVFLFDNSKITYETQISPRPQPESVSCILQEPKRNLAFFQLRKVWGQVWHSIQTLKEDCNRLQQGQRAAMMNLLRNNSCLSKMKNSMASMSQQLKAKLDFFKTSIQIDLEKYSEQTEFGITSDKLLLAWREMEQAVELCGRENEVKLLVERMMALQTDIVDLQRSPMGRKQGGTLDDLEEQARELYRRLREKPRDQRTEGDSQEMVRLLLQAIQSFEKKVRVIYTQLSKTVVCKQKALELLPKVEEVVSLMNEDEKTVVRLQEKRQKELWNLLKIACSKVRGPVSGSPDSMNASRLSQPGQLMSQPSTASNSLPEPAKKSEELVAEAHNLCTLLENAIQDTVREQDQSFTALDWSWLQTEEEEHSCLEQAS
# T1 sequence (O15111 whole entry): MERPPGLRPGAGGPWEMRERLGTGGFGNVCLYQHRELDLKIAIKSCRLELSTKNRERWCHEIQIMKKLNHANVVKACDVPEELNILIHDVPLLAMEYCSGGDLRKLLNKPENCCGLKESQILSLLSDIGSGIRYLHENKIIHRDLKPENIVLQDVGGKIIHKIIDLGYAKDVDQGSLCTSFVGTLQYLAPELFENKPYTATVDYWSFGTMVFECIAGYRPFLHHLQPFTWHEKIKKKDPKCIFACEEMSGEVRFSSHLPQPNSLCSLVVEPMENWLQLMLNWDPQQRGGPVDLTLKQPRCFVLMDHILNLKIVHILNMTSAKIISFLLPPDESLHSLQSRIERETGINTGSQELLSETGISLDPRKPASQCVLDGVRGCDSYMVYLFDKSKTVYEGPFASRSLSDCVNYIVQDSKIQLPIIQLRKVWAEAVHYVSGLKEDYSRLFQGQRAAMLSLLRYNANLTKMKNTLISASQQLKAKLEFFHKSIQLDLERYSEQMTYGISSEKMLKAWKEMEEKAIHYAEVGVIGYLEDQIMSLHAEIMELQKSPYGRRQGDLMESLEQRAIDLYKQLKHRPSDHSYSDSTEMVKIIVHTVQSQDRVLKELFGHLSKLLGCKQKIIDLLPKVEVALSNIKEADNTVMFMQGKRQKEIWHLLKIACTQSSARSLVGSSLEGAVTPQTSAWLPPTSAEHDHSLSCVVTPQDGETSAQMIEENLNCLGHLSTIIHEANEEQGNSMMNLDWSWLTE
# T1 sequence (Q9Y6K9 whole entry partner): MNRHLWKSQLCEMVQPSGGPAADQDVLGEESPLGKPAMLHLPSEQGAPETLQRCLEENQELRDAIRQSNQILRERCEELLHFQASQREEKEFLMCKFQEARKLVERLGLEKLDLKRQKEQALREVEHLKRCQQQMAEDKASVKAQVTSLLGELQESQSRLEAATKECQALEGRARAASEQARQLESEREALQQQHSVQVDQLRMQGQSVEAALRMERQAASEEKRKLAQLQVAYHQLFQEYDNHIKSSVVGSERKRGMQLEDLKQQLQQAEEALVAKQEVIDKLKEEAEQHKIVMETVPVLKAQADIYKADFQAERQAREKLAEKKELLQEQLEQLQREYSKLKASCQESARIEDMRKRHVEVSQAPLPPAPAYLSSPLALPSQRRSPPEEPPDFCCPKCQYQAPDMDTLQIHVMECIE
# [1] = Comparison experiment: blood plasma level after oral administration, male NMRI mice; format: in vivo
# Protocol: [drawing 27] was prepared as described in WO 01/30774 and is termed the comparison compound below. The comparison compound was administered to male NMRI mice. For this, in each case about 50 mg of the comparison compound per kg of body weight of the mice were administered orally as a suspension in 0.5% HEC (by way of a probang). Blood samples were taken after 0.25; 0.5; 1; 2; 4; 6 and 8 hours (sacrificial blood was withdrawn from in each case 2 animals at each of the time points mentioned). The blood samples were converted into heparin plasma. The plasma samples were stored at −20° C. until analyzed.
# Analysis: The analysis was carried out using HPLC/UV.
# (§1) Processing: 50 μl of plasma+20 μl of internal standard (5 μg/ml)+50 μl of buffer (1% formic acid/acetonitrile, 40:60, v/v) were mixed for about 10 sec on a Whirlmixer. 150 μl of acetonitrile were then added and the whole was mixed once again for about 10 sec. The samples were then centrifuged (Hettich, EBA 12, about 12 000 revolutions per min). The supernatants (in each case about 200 μl) were transferred to glass tubes. 100 μl of the supernatant were injected.
# [2] = Blood plasma level after oral administration, male C57/BL6 mice; format: in vivo; conditions: about 25 mg/kg orally as suspension in 0.5% HEC, sampling 0.25-8 hours
# Protocol: Blood plasma level of N-[(S)-2-diphenylamino-1-(5-oxo-4,5-dihydro[1,3,4]-oxadiazol-2-yl)ethyl]-2-(2-methylaminopyrimidin-4-yl)-1H-indol-5-carboxamide.
# Blood samples were taken after 0.25; 0.5; 1; 2; 4; 6 and 8 hours (sacrificial blood was withdrawn from in each case 2 animals at each of the time points mentioned). The blood samples were converted into heparin plasma. The plasma samples were stored at −20° C. until analyzed.
# The plasma samples were thawed. The plasma proteins which interfered with the analysis were then precipitated with acetonitrile.
# as §1, with “(2 mMol ammonium formate solution, pH 2.6/acetonitrile,” for “(1% formic acid/acetonitrile,”, “minute).” for “min).”, “70” for “100”
# The lower detection limit of the method is 0.01 μg/mL.
compound,measurement,setting,value
"CNc1nccc(-c2cc3cc(C(=O)N[C@@H](CN(c4ccccc4)c4nccs4)C(N)=O)ccc3[nH]2)n1 [Example 42, N-[1–Carbamoyl-2-(phenylthiazol-2-ylamino)ethyl]-S-2-(2-methylaminopyrimidin-4-yl)-1H-indole-5-carboxamide]",Specificity ratio,protein tyrosine kinase,>1110
same,IC50,IκB kinase,9 nM
"CNc1nccc(-c2cc3cc(C(=O)N[C@@H](CN(c4ccccc4)c4nccc(C(F)(F)F)n4)C(=O)O)ccc3[nH]2)n1 [Example 54, (S)-2-{[2-(2-Methylaminopyrimidin-4-yl)-1H-indole-5-carbonyl]amino}-3-[phenyl-(4-trifluoromethylpyrimidin-2-yl)amino]propionic Acid]",Specificity ratio,protein tyrosine kinase,>3330
same,IC50,IκB kinase,3 nM
CCN(C[C@H](NC(=O)c1ccc2[nH]c(-c3ccncc3)cc2c1)C(N)=O)c1ccccc1 [comparison compound],IC50,protein tyrosine kinase,46400 nM
same,ratio of the IC50 values for protein tyrosine kinase relative to IκB kinase,protein tyrosine kinase; for the comparison compound the IκB kinase IC50 is taken from WO 01/30774,46.35
same,maximum blood plasma level lower than with compound 28,"[1]; comparison compound 50 mg/kg vs compound 28 25 mg/kg, oral, mice",about 60%
same,"plasma level, at most (maximum blood plasma level)","[1]; male NMRI mice, about 50 mg/kg orally as suspension in 0.5% HEC, sampling 0.25-8 hours",1500 ng/mL
same,AUC,"[1]; mouse, plasma, po, male NMRI mice, about 50 mg/kg orally as suspension in 0.5% HEC, sampling 0.25-8 hours, read-out: exposure, measured as the AUC=area under the curve",1700 ng·h/mL
"CNc1nccc(-c2cc3cc(C(=O)NC(CN(c4ccccc4)c4ncccn4)C(N)=O)ccc3[nH]2)n1 (stereo not drawn) [Example 47, N-{1–Carbamoyl-2[(phenyl)pyrimidin-2-ylamino]ethyl}-2-(2-methylaminopyrimidin-4-yl)-1H-indole-5-carboxamide]",Specificity ratio,protein tyrosine kinase,>1665
same,IC50,IκB kinase,6 nM
"CNc1nccc(-c2cc3cc(C(=O)N[C@@H](CN(c4ccccc4)c4ccccn4)C(=O)NOC)ccc3[nH]2)n1 [Example 43, N-[1-Methoxycarbamoyl-2-(phenylpyridin-2-ylamino)ethyl]-S-2-(2-methylaminopyrimidin-4-yl)-1H-indole-5-carboxamide]",Specificity ratio,protein tyrosine kinase,>12500
same,IC50,IκB kinase,0.8 nM
"CNc1nccc(-c2cc3cc(C(=O)NC(CN(c4ccc(F)cc4)c4ncc(C)cn4)C(N)=O)ccc3[nH]2)n1 (stereo not drawn) [Example 61, N-{1–Carbamoyl-2-[(4-fluorophenyl)-(5-methylpyrimidin-2-yl)amino]ethyl}-2-(2-methylaminopyrimidin-4-yl)-1H-indole-5-carboxamide]",Specificity ratio,protein tyrosine kinase,>1650
same,IC50,IκB kinase,6 nM
"CNc1nccc(-c2nc3cc(C(=O)NC(CN(c4ccccc4)c4ccccn4)C(N)=O)ccc3[nH]2)n1 (stereo not drawn) [Example 67, N-{1–Carbamoyl-2-[(phenyl)pyridin-2-ylamino]ethyl}-2-(2-methylaminopyrimidin-4-yl)-1H-benzimidazole-5-carboxamide]",Specificity ratio,protein tyrosine kinase,>5000
same,IC50,IκB kinase,2 nM
"CNc1nccc(-c2cc3cc(C(=O)N[C@@H](CN(c4ccccc4)c4ccccc4)c4n[nH]c(=O)o4)ccc3[nH]2)n1 [Example 28, N-[(S)-2-Diphenylamino-1-(5-oxo-4,5-dihydro[1,3,4]oxadiazol-2-yl)ethyl]-2-(2-methylaminopyrimidin-4-yl)-1H-indole-5-carboxamide]","plasma level, at most (maximum blood plasma level)",[2],4300 ng/mL
same,AUC,"[2]; mouse, plasma, po, read-out: exposure, measured as AUC=area under the curve",5400 ng·h/mL
same,IC50,protein tyrosine kinase,82500 nM
CNc1nccc(-c2nc3cc(C(=O)N[C@@H](CN(c4ccccc4)c4ccccc4)C(N)=O)ccc3[nH]2)n1 [Example 63],Specificity ratio,protein tyrosine kinase,>1000
same,IC50,IκB kinase,3 nM
"CNc1nccc(-c2cc3cc(C(=O)NC(CN(c4ccc(F)cc4)c4ccccn4)c4nnc[nH]4)ccc3[nH]2)n1 (stereo not drawn) [Example 36, N-[2-[(4-Fluorophenyl)pyridin-2-ylamino]-1-(4H-[1,2,4]triazol-3-yl)ethyl]-2-(2-methylaminopyrimidin-4-yl)-1H-indole-5-carboxamide]",Specificity ratio,protein tyrosine kinase,>2000
same,IC50,IκB kinase,5 nM
"CNc1nccc(-c2cc3cc(C(=O)NC(CN(c4ccc(F)cc4)c4ccccn4)C(N)=O)ccc3[nH]2)n1 (stereo not drawn) [Example 30, N-{1–Carbamoyl-2-[(4-fluorophenyl)pyridin-2-ylamino]ethyl}-2-(2-methylaminopyrimidin-4-yl)-1H-indole-5-carboxaminde]",Specificity ratio,protein tyrosine kinase,>200
same,IC50,IκB kinase,50 nM
"NC(=O)C(CN(c1ccc(F)cc1)c1ccccn1)NC(=O)c1ccc2[nH]c(-c3ccnc(N)n3)cc2c1 (stereo not drawn) [Example 35, N-{1–Carbamoyl-2-[(4-fluorophenyl)pyridin-2-ylamino]ethyl}-2-(2-aminopyrimidin-4-yl)-1H-indole-5-carboxamide]",Specificity ratio,protein tyrosine kinase,>1000
same,IC50,IκB kinase,10 nM
"CNc1nccc(-c2nc3cc(C(=O)NC(CN(c4ccccc4)c4ncccn4)C(N)=O)ccc3[nH]2)n1 (stereo not drawn) [Example 65, N-{1–Carbamoyl-2-[(phenyl)pyrimidin-2-ylamino]ethyl}2-(2-methylaminopyrimidin-4-yl)-1H-benzimidazole-5-carboxamide]",Specificity ratio,protein tyrosine kinase,>2500
same,IC50,IκB kinase,4 nM
"CNc1nccc(-c2cc3cc(C(=O)NC(CN(c4ccccc4)c4ncccn4)C(=O)NCCO)ccc3[nH]2)n1 (stereo not drawn) [Example 49, N-[1-(2-Hydroxyethylcarbamoyl)-2-(phenylpyrimidin-2-ylamino)ethyl]-2-(2-methylaminopyrimidin-4-yl)-1H-indole-5-carboxamide]",IC50,IκB kinase,35 nM
"CNc1nccc(-c2cc3cc(C(=O)N[C@@H](CN(c4ccccc4)c4ccccn4)c4n[nH]c(=O)o4)ccc3[nH]2)n1 [Example 33, N-[(S)-1-(5-Oxo-4,5-dihydro-1,3,4-oxadiazol-2-yl)-2-(phenylpyridin-2-ylamino)ethyl]-2-(2-methylaminopyrimidin-4-yl)-1H-indole-5-carboxamide]",Specificity ratio,protein tyrosine kinase,>833
same,IC50,IκB kinase,12 nM
